Results from US4026888A, “Certain derivatives of particular 3-thiolated cephalosporins” (priority 1976, dated 1977).
In brackets after ≈: the same amount, converted by molar mass. Where two headings read alike, the source gives them in different places.

Experiments:
[1] = Mouse blood levels after intramuscular administration; format: in vivo; conditions: for concentration at 0.25 h / concentration at 0.5 h / concentration at 1 h / concentration at 1.5 h: mouse, blood, im, 10 mg/kg, IM 10 mg./kg., 0.01% phosphate buffer
Method: Mouse Blood Levels After Intramuscular Administration
of 10 mg./kg. Body Weight
The compounds were dissolved in 0.01% phosphate buffer.
Mouse Blood Levels After IM
Administration of 10 mg./kg. Body Weight
The compounds were prepared in 0.01% phosphate
(§1) The compounds were prepared in 0.01% phosphate buffer.

[2] = test system: P. mirabilis A9900; assay: IM PD50 in mice; format: in vivo; conditions: Proteus mirabilis
From the text: Comparative IM PD50 Values of
BL-S640 Derivatives in Mice

[3] = Paper chromatography of rat urine for antibiotically active metabolites; format: in vivo; conditions: IM; rat urine 0-2 and 2-4 hours
Method: Paper chromatograms were run on rat urine collected between 0 and 2 and between 2 and 4 hours following IM administration of BL-S1055 and 640, for the detection of antibiotically active metabolites using descending chromatography with system No. 9 (butyl acetate:n-butanol:glacial acetic acid:H2 O= 80:15:40:24).

[4] = test system: P. mirabilis A9900; assay: Oral PD50 in mice; format: in vivo; conditions: Proteus mirabilis, A9900, po, 3.5 h, oral; mice treated at 1 and 3.5 hours post-challenge; read-out: PD50
[5] = test system: Str. pyogenes A9604; assay: Antibiotic activity in nutrient broth (MIC); format: cell-based; conditions: Streptococcus pyogenes, A9604, inoculum 10^-3; 45% AAB + 5% serum + 50% broth; derivatives adjusted for BL-S640 content; read-out: MIC
From the text: (§2) Antibiotic Activity In Nutrient Broth
(§3) * 45% AAB+ 5% serum+ 50% broth listed above.
(§4) ** Dilution of overnight broth culture.
(§5) Antibiotic Spectrum Nutrient Broth
(§6) * 45% AAB + 5% serum + 50% broth
(§7) Antibiotic Spectrum in Nutrient Broth
(§8) *45% AAB + 5% serum + 50% broth listed above.

[6] = test system: Str. pneumoniae A9585; assay: Antibiotic activity in nutrient broth (MIC); format: cell-based; conditions: Streptococcus pneumoniae, A9585, inoculum 10^-3 dilution of overnight broth culture; 45% AAB + 5% serum + 50% broth; derivatives adjusted for BL-S640 content
From the text: as §2, §3, §4, §5, §6, §7, §8

[7] = Mouse blood levels after oral administration; format: in vivo; conditions: for Blood Level: listed as Compound of Ex. 1, 100 mg/kg; for concentration at 0.5 h / concentration at 1 h / concentration at 2 h / concentration at 3.5 h: mouse, blood, po, 100 mg/kg
Method: Mouse Blood Levels After Oral
Administration Of 100 mg./kg. Body Weight
The compounds were prepared in
Tween - carboxymethylcellulose
and 8 mice were used for each
Mouse Blood Levels After PO
Administration of 100 mg./kg. Body Weight
The compounds were prepared in Tween-CMC. BL-S640
The compounds were prepared in Tween-CMC. Values are the average of two

[8] = Urinary recovery after IM administration to rats; format: in vivo; conditions: rat, urine, read-out: Urinary Recovery, Percentage of Administered Dose Recovered; for dose excreted at 6 h: 0-6 hr
Method: Urinary Recovery After IM
Administration of 50 and 10 mg./kg. to Rats
The compounds were prepared in 0.01% phosphate buffer. BL-S640 was used as
Urinary Recovery after IM
Administration of 50 mg./kg. to Rats
as §1

[9] = test system: Sal. enteritidis A9531; assay: Antibiotic activity in nutrient broth (MIC); format: cell-based; conditions: Salmonella enterica, ENTERITIDIS, inoculum 10^-4; derivatives adjusted for BL-S640 content; read-out: MIC
From the text: as §2, §4, §5, §7

[10] = test system: K. pneumoniae A9977; assay: Antibiotic activity in nutrient broth (MIC); format: cell-based; conditions: Klebsiella pneumoniae, inoculum 10^-4, derivatives adjusted for BL-S640 content, read-out: MIC
From the text: as §2, §4, §5, §7

[11] = test system: Ent. cloacae A9656; assay: Antibiotic activity in nutrient broth (MIC); format: cell-based; conditions: Enterobacter cloacae, A9656, inoculum 10^-4; derivatives adjusted for BL-S640 content
From the text: as §2, §4, §5, §7

[12] = test system: Ent. cloacae A9657; assay: Antibiotic activity in nutrient broth (MIC); format: cell-based; conditions: Enterobacter cloacae, A9657, inoculum 10^-4; derivatives adjusted for BL-S640 content; read-out: MIC
From the text: as §2, §4, §5, §7

[13] = test system: K. pneumoniae A15130; assay: Antibiotic activity in nutrient broth (MIC); format: cell-based; conditions: Klebsiella pneumoniae, A15130, inoculum 10^-4; derivatives adjusted for BL-S640 content; read-out: MIC
From the text: as §2, §4, §5, §7

[14] = test system: Ent. cloacae A9659; assay: Antibiotic activity in nutrient broth (MIC); format: cell-based; conditions: Enterobacter cloacae, A9659, inoculum 10^-4; derivatives adjusted for BL-S640 content; read-out: MIC
From the text: as §2, §4, §5, §7

[15] = test system: Ser. marcescens A20019; assay: Antibiotic activity in nutrient broth (MIC); format: cell-based; conditions: derivatives adjusted for BL-S640 content
From the text: as §2, §4, §5, §7

[16] = test system: S. aureus Meth-Res A15097; assay: Antibiotic activity in nutrient broth (MIC); format: cell-based; conditions: inoculum 10^-3, Meth-Res, derivatives adjusted for BL-S640 content
From the text: as §2, §4, §5, §7

[17] = test system: S. aureus BX1633 A9606; assay: Antibiotic activity in nutrient broth (MIC); format: cell-based; conditions: Staphylococcus aureus, derivatives adjusted for BL-S640 content, read-out: MIC
From the text: as §2, §4, §5, §7

[18] = test system: Ps. aeruginosa A9843A; assay: Antibiotic activity in nutrient broth (MIC); format: cell-based; conditions: Pseudomonas aeruginosa
From the text: as §2, §4, §5, §7

[19] = test system: Pr. morganii A15153; assay: Antibiotic activity in nutrient broth (MIC); format: cell-based; conditions: Morganella morganii, A15153, inoculum 10^-4; derivatives adjusted for BL-S640 content; read-out: MIC
From the text: as §2, §4, §5, §7

[20] = test system: E. coli Juhl A15119; assay: Antibiotic activity in nutrient broth (MIC); format: cell-based; conditions: Escherichia coli, JUHLA15119, inoculum 10^-4; derivatives adjusted for BL-S640 content; read-out: MIC
From the text: as §2, §4, §5, §7

[21] = test system: Pr. mirabilis A9900; assay: Antibiotic activity in nutrient broth (MIC); format: cell-based; conditions: Proteus mirabilis, inoculum 10^-4, derivatives adjusted for BL-S640 content
From the text: as §2, §4, §5, §7

[22] = Example 2, 16 or 32 mice, read-out: Blood Levels
[23] = Table III, read-out: Mouse Blood Levels

With `O=C(O)C1=C(CSc2cnn[nH]2)CS[C@@H]2[C@H](N3C(=O)[C@@H](c4ccc(O)cc4)NC3c3ccc(S(=O)(=O)O)o3)C(=O)N12` (stereo partly drawn) [BL-S1027] the “Mouse blood levels, intramuscular, compared with BL-S640 propylene glycol adduct” value ([1]; intramuscular, in words) was “approximately equal”, the concentration at 0.25 h [1, 22] was 15400 ng/mL and the concentration at 0.5 h [1, 22] was 15100 ng/mL. It also gave a concentration at 1 h [1, 22] of 11800 ng/mL, a concentration at 1.5 h [1, 22] of 8200 ng/mL and a concentration at 0.25 h [1, 23] of 16100 ng/mL. It also gave a concentration at 0.5 h [1, 23] of 14800 ng/mL, a concentration at 1 h [1, 23] of 11900 ng/mL and a concentration at 1.5 h [1, 23] of 8000 ng/mL. The “free BL-S640 by liquid chromatography” value (1 mg./ml. in pH 7 phosphate buffer, 0 time) was 85%, the “Form in solution by paper strip and liquid chromatography” value (0.2 and 1.0 mg./ml. in water) was “exists as free BL-S640” and the ED50 [2] was 1.6 mg/kg. The “Hydrolysis to the parent compound (BL-S640)” value [3] was “complete hydrolysis”, the ED50 [4] was 6.3 mg/kg and the MIC [5] was 0.03 µg/mL. The MIC [6] was 0.03 µg/mL, the “Blood Level” value ([7]; Table II, oral 100 mg./kg., 0.5 hr, Tween-carboxymethylcellulose, 8 mice, 30 min) was 54600 ng/mL and the “Blood Level” value ([7]; Table II, oral 100 mg./kg., 1 hr, Tween-carboxymethylcellulose, 8 mice, 60 min) was 53500 ng/mL. For the same compound, the “Blood Level” value ([7]; Table II, oral 100 mg./kg., 2 hr, Tween-carboxymethylcellulose, 8 mice, 120 min) was 27600 ng/mL, the “Blood Level” value ([7]; Table II, oral 100 mg./kg., 3.5 hr, Tween-carboxymethylcellulose, 8 mice, 210 min) was 8200 ng/mL and the concentration at 0.5 h ([7]; Example 2, PO 100 mg./kg., 0.5 hr, Tween-CMC, 16 or 32 mice, read-out: Blood Levels) was 49800 ng/mL. For the same compound, the concentration at 1 h ([7]; Example 2, PO 100 mg./kg., 1 hr, Tween-CMC, 16 or 32 mice, read-out: Blood Levels) was 45100 ng/mL, the concentration at 2 h ([7]; Example 2, PO 100 mg./kg., 2 hr, Tween-CMC, 16 or 32 mice, read-out: Blood Levels) was 24000 ng/mL and the concentration at 3.5 h ([7]; Example 2, PO 100 mg./kg., 3.5 hr, Tween-CMC, 16 or 32 mice, read-out: Blood Levels) was 9300 ng/mL. It also gave a concentration at 0.5 h ([7]; Table II, oral 100 mg./kg., 0.5 hr, Tween-carboxymethylcellulose, 8 mice, read-out: Blood Level) of 45000 ng/mL, a concentration at 1 h ([7]; Table II, oral 100 mg./kg., 1 hr, Tween-carboxymethylcellulose, 8 mice, read-out: Blood Level) of 36600 ng/mL and a concentration at 2 h ([7]; Table II, oral 100 mg./kg., 2 hr, Tween-carboxymethylcellulose, 8 mice, read-out: Blood Level) of 20400 ng/mL. For the same compound, the concentration at 3.5 h ([7]; Table II, oral 100 mg./kg., 3.5 hr, Tween-carboxymethylcellulose, 8 mice, read-out: Blood Level) was 10400 ng/mL, the “Mouse blood levels, oral, compared with BL-S640 propylene glycol adduct” value ([7]; oral, in words) was “approximately equal” and the dose excreted at 6 h ([8]; 10 mg/kg, IM 10 mg./kg.) was 30.1%. The dose excreted at 24 h ([8]; 10 mg/kg, IM 10 mg./kg., 0-24 hr) was 31.8%, the dose excreted at 24 h ([8]; 10 mg/kg, IM 10 mg./kg., 6-24 hr) was 1.7% and the dose excreted at 6 h ([8]; 50 mg/kg, IM 50 mg./kg.) was 39.6%. It also gave a dose excreted at 24 h ([8]; 50 mg/kg, IM 50 mg./kg., 0-24 hr) of 42.2%, a dose excreted at 24 h ([8]; 50 mg/kg, IM 50 mg./kg., 6-24 hr) of 2.6% and an MIC [9] of 0.25 µg/mL (≈ 0.403 µM). For the same compound, the MIC [10] was 0.5 µg/mL (≈ 0.806 µM), the MIC [11] was over 125 µg/mL and the MIC [12] was 1 µg/mL (≈ 1.61 µM). For the same compound, the MIC [13] was 1 µg/mL (≈ 1.61 µM), the MIC [14] was 32 µg/mL (≈ 51.6 µM) and the MIC ([15]; Serratia marcescens, A20019, inoculum 10^-4) was over 125 µg/mL. The MIC ([15]; inoculum 10^-4) was 125 µg/mL (≈ 201 µM), the MIC ([16]; Staphylococcus aureus, read-out: MIC) was 4 to 8 µg/mL (≈ 6.44 to 12.9 µM) and the MIC [16] was 4 µg/mL (≈ 6.44 µM). For the same compound, the MIC ([17]; BX1633A9606, inoculum 10^-2) was 4 µg/mL (≈ 6.44 µM), the MIC ([17]; BX1633A9606, inoculum 10^-3) was 0.5 µg/mL (≈ 0.806 µM) and the MIC [18] was over 125 µg/mL. For the same compound, the MIC [19] was 32 µg/mL (≈ 51.6 µM), the MIC [20] was 1 µg/mL (≈ 1.61 µM) and the MIC [21] was 0.5 µg/mL (≈ 0.806 µM).
